Measurements reported in patent US20100298141A1, “SUBSTITUTED PYRIDINE N-OXIDE HERBICIDES” (E. I. DU PONT DE NEMOURS AND COMPANY, priority 2007, published 2010).

Experiments:
[1] = test system: downy bromegrass; assay: Test D preemergence test; type: in vivo, Bromus tectorum; settings: scale 0 to 100
Text: Seeds of plant species selected from annual bluegrass (Poa annua), blackgrass (Alopecurus myosuroides), downy bromegrass (Bromus tectorum), field violet (Viola arvensis), green foxtail (Setaria viridis), Italian ryegrass (Lolium multiflorum), littleseed canarygrass (Phalaris minor), spring wheat (Triticum aestivum), wild oat (Avena fatua), […]), winter barley (Hordeum vulgare), and winter wheat (Triticum aestivum) were planted and treated preemergence with test chemicals formulated in a non-phytotoxic solvent mixture which included a surfactant. […] A dash (-) response means no test result.

[2] = test system: large crabgrass; assay: Test F preemergence test; type: in vivo, Digitaria sanguinalis; settings: scale 0 to 100
In short: (§1)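 Test chemicals in a non-phytotoxic solvent mixture containing a surfactant were applied preemergence to sown seeds or postemergence to sugarcane plants. Treated plants and controls were held in a greenhouse for 14 to 21 days, then visually evaluated against controls.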

[3] = test system: barnyardgrass; assay: Test F preemergence test; type: in vivo, Echinochloa crus-galli; settings: scale 0 to 100
In short: as §1

[4] = test system: common sowthistle; assay: Test F preemergence test; type: in vivo, Sonchus oleraceous; settings: scale 0 to 100; for Plant response rating, Sowthistle: 31 g ai/ha
In short: as §1

[5] = test system: common chickweed; assay: Test F preemergence test; type: in vivo, Stellaria media; settings: scale 0 to 100
In short: as §1

[6] = test system: Virginia dayflower; assay: Test F preemergence test; type: in vivo, Commelina virginica; settings: scale 0 to 100
In short: as §1

[7] = test system: Canada horseweed; assay: Test F preemergence test; type: in vivo, Conyza canadensis; settings: scale 0 to 100
In short: as §1

[8] = test system: Russian thistle; assay: Test F preemergence test; type: in vivo, Salsola kali; settings: scale 0 to 100
Text: Seeds of plant species selected from bermudagrass (Cynodon dactylon), Surinam grass (Brachiaria decumbens), large crabgrass (Digitaria sanguinalis), green foxtail (Setaria viridis), goosegrass (Eleusine indica), johnsongrass (Sorghum halepense), kochia (Kochia scoparia), pitted morningglory (Ipomoea lacunosa), purple nutsedge (Cyperus rotundus), common ragweed (Ambrosia elation), mustard (Brassica nigra), guineagrass (Panicum maximum), […] (Paspalum dilatatum), barnyardgrass (Echinochloa crus-galli), southern sandbur (Cenchrus echinatus), common sowthistle (Sonchus oleraceous), prickly […] spinosa), Italian ryegrass (Lolium multiflorum), common purslane (Portulaca oleracea), broadleaf signalgrass (Brachiaria platyphylla), common groundsel (Senecio vulgaris), common chickweed (Stellaria media), Virginia dayflower (Commelina virginica), annual bluegrass (Poa annua), naked crabgrass (Digitaria nuda), […] cochinchinensis), quackgrass (Elytrigia repens), Canada horseweed (Conyza canadensis), field bindweed (Convolvulus arvensis), […] (Bidens bipinnata), common mallow (Malva sylvestris), Russian thistle (Salsola kali), and sugarcane (Saccharum officinarum) were planted and treated preemergence with test chemicals formulated in a non-phytotoxic solvent mixture which included a surfactant. At a different time, sugarcane was treated with postemergence applications of some of the test chemicals formulated in the same manner. Plants were approximately 3- to 4-leaf stage for the postemergence treatments. Treated plants and controls were maintained in a greenhouse for 14 to 21 days, after which time all species were compared to controls and visually evaluated. […] A dash (-) response means no test result.

Compound | Plant response rating, Bromegrass, Downy ([1]; 31 g ai/ha) | Plant response rating, Bromegrass, Downy ([1]; 62 g ai/ha) | Plant response rating, Bromegrass, Downy ([1]; 125 g ai/ha) | Plant response rating, Bromegrass, Downy ([1]; 250 g ai/ha) | Crabgrass, Large plant response rating ([2]; 62 g ai/ha, Preemergence) | Crabgrass, Large plant response rating ([2]; 125 g ai/ha, preemergence) | Plant response rating, Crabgrass, Large ([2]; Preemergence, 16 g ai/ha) | Plant response rating, Crabgrass, Large ([2]; Preemergence, 31 g ai/ha) | Barnyardgrass plant response rating ([3]; 62 g ai/ha, Preemergence) | Barnyardgrass plant response rating ([3]; 125 g ai/ha, preemergence) | Plant response rating, Barnyardgrass ([3]; Preemergence, 16 g ai/ha) | Plant response rating, Barnyardgrass ([3]; Preemergence, 31 g ai/ha) | Sowthistle plant response rating ([4]; 62 g ai/ha, Preemergence) | Sowthistle plant response rating ([4]; 125 g ai/ha, preemergence) | Plant response rating, Sowthistle ([4]; Preemergence) | Chickweed plant response rating ([5]; 62 g ai/ha, Preemergence) | Chickweed plant response rating ([5]; 125 g ai/ha, preemergence) | Plant response rating, Chickweed ([5]; Preemergence, 16 g ai/ha) | Plant response rating, Chickweed ([5]; Preemergence, 31 g ai/ha) | Dayflower plant response rating ([6]; 62 g ai/ha, Preemergence) | other results
Cn1nc(C(F)(F)F)c(CS(=O)(=O)c2ccc(Cl)c[n+]2[O-])c1OC(F)F [Compound 7] | 0 | 20 | 25 | 35 | – | – | – | – | – | – | – | – | – | – | – | – | – | – | – | – | –
Cn1nc(C(F)(F)F)c(C[S+]([O-])c2cccc[n+]2[O-])c1Cl (stereo not shown) [Compound 8] | – | – | – | – | 90 | 98 | 0 | 65 | 95 | 100 | 70 | 80 | 90 | 100 | 65 | 95 | 98 | 0 | 60 | 0 | Dayflower plant response rating ([6]; 125 g ai/ha, preemergence): 75; Plant response rating, Dayflower ([6]; Preemergence, 16 g ai/ha): 0; Plant response rating, Dayflower ([6]; Preemergence, 31 g ai/ha): 0; Horseweed plant response rating ([7]; 62 g ai/ha, Preemergence): 100; Horseweed plant response rating ([7]; 125 g ai/ha, preemergence): 100; Plant response rating, Horseweed ([7]; Preemergence, 16 g ai/ha): 0; Plant response rating, Horseweed ([7]; Preemergence, 31 g ai/ha): 0; Russian Thistle plant response rating ([8]; 125 g ai/ha, preemergence): 100
Cc1cc[n+]([O-])c(S(=O)(=O)C(C)c2c(C(F)(F)F)nn(C)c2OC(F)F)c1 (stereo not shown) [Compound 11] | – | – | – | – | 98 | 100 | 60 | 80 | 95 | 98 | 75 | 95 | 100 | 100 | 90 | 100 | 100 | 70 | 80 | 100 | Dayflower plant response rating ([6]; 125 g ai/ha, preemergence): 100; Plant response rating, Dayflower ([6]; Preemergence, 16 g ai/ha): 0; Plant response rating, Dayflower ([6]; Preemergence, 31 g ai/ha): 80; Horseweed plant response rating ([7]; 125 g ai/ha, preemergence): 100; Russian Thistle plant response rating ([8]; 62 g ai/ha, Preemergence): 100; Russian Thistle plant response rating ([8]; 125 g ai/ha, preemergence): 100; Plant response rating, Russian Thistle ([8]; Preemergence, 31 g ai/ha): 100
Cn1nc(C(F)(F)F)c(C(Cl)S(=O)(=O)c2cccc[n+]2[O-])c1Cl (stereo not shown) [Compound 12] | 0 | 0 | 60 | 60 | – | – | – | – | – | – | – | – | – | – | – | – | – | – | – | – | –
